Values of other authors as cited in US20080112918A1, “Method for treating gout and binding uric acid” (priority 2001, published 2008).

Conditions: administered orally; treatment of gouty arthritis

COc1cc2c(c(OC)c1OC)-c1ccc(OC)c(=O)cc1[C@@H](NC(C)=O)CC2 [colchicine]
people who cannot tolerate the drug because of side effects: 80%
